Active and inactive are the calls of the source.
Assays:
HEK293 [1] = experiment: inhibition of NOD1-driven NF-kB reporter – cell-based, luminescence, uHTS, primary screen (AID 1578); format: functional; conditions: Homo sapiens
HEK293 [2] = experiment: cells; format: functional, cell-based; conditions: Homo sapiens
HEK293 [3] = experiment: cells; format: functional, cell-based; conditions: Homo sapiens; remark: listed apart in the source
HEK293 [4] = experiment: NOD2 signaling inhibitors in MDP-stimulated cells, cell-based, uHTS, luminescence (AID 2001); format: functional; conditions: Homo sapiens
Vero [5] = experiment: viability of Vero cells under compound – cytotoxicity control for flavivirus capping enzyme inhibitors (AID 588742); format: functional; conditions: Chlorocebus sabaeus
Genome polyprotein = Genome polyprotein (dengue virus type 2, UniProt P29990); experiment: flavivirus cap methylation enzyme inhibition – biochemical, confirmation dose response, primary screen (AID 588689); format: functional
[6] = biological target: Photoreceptor-specific nuclear receptor (Homo sapiens, UniProt Q9Y5X4); format: functional, cell-based;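 also: CHO-S cells with Gal4-NCOR and VP16-NR2E3 two-hybrid luciferase reporter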
Bcl-2-related protein A1 = biological target: T1, Bcl-2-related protein A1 (Mus musculus, UniProt Q07440); format: functional;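 also: confirmatory dose–response counterscreen on Bfl-1, used to check hits from a UBC13 polyubiquitin inhibitor campaign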
T1 sequence (Q07440 whole entry): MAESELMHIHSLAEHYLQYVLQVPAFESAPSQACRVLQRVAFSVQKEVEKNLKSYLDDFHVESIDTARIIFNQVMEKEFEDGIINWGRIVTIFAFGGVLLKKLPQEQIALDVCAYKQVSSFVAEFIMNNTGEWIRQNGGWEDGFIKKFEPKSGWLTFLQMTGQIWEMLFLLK

[7] = biological target: T2, Ubiquitin-conjugating enzyme E2 N (Homo sapiens, UniProt P61088); format: functional
T2 sequence (P61088 whole entry): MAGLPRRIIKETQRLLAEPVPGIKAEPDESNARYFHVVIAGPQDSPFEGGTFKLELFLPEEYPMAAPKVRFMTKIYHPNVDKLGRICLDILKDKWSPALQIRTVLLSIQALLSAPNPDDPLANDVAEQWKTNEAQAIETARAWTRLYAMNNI

[8] = biological target: T2, Ubiquitin-conjugating enzyme E2 N; format: functional; remark: listed apart in the source
[9] = biological target: T3, Apoptotic protease-activating factor 1 (Homo sapiens, UniProt O14727); format: functional
T3 sequence (O14727 whole entry): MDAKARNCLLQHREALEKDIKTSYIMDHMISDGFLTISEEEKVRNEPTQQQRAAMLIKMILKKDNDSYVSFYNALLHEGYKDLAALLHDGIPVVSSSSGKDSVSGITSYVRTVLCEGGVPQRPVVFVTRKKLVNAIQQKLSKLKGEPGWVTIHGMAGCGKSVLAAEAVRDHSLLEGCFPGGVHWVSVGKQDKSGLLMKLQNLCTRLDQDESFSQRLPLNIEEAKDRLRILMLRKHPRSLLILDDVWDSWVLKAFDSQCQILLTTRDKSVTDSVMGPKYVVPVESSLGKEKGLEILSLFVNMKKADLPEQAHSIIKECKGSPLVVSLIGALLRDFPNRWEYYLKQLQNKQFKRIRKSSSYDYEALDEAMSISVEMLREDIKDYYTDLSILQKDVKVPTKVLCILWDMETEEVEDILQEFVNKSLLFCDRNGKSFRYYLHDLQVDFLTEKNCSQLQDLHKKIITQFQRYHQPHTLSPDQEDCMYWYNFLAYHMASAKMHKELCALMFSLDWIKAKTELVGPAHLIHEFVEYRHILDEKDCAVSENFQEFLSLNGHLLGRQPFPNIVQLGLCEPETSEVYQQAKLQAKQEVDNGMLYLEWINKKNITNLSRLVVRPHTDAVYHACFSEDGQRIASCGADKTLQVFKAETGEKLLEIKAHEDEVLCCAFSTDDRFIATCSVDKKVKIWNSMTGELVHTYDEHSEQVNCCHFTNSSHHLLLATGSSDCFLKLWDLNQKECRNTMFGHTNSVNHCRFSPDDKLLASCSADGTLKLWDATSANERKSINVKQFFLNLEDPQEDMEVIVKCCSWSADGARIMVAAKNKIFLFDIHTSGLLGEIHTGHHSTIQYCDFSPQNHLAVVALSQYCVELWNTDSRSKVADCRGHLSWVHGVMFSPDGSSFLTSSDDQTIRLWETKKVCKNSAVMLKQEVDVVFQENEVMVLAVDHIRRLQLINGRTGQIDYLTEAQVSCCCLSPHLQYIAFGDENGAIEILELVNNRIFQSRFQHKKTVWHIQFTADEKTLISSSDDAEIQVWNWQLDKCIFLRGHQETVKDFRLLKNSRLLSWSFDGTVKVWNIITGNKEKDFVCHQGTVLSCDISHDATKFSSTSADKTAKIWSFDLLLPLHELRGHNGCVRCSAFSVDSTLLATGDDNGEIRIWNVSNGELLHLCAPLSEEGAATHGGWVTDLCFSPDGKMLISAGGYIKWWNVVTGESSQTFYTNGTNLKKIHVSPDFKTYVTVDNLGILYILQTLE

[10] = Luminescence Cell-Based Dose Response HTS to Identify Activators of Luciferase Translation or Activity in H4 […] Cells. [Related pubchem assays: 1829 (Project Summary), 1814 (Primary HTS)]; format: functional
H4 = experiment: Luminescence Cell-Based Dose Response HTS to Identify Activators of 5'UTR Stem-Loop Driven Prion Protein mRNA Translation in H4 Neuroglioblastoma Cells. [Related pubchem assays: 1829 (Project Summary), 1814 (Primary HTS)]; format: functional; conditions: Homo sapiens
[11] = biological target: T4, Microphthalmia-associated transcription factor (Homo sapiens, UniProt O75030); experiment: reducers of TRPM1 reporter luminescence, concentration series – cell-based, SK-MEL-5, cherry-picked, set 3, MITF inhibitor project, dose response (AID 493073); format: functional;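 also: SK-MEL-5 melanoma cells with luciferase driven by the MITF target TRPM1 promoter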
T4 sequence (O75030 whole entry): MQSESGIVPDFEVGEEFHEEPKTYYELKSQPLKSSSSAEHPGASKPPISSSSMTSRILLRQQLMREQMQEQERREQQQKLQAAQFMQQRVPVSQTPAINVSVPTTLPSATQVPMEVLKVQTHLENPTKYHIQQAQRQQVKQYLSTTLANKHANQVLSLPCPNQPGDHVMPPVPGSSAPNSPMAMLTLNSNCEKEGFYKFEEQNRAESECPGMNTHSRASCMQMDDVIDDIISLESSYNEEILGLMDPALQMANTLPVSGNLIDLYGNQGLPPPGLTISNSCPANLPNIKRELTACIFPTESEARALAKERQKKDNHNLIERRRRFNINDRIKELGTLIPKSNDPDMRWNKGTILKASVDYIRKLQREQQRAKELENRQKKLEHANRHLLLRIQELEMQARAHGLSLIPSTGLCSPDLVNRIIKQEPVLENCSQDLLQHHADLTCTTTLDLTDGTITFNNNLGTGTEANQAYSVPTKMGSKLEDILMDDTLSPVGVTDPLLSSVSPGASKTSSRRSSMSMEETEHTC

Vero [12] = experiment: cells; format: functional, cell-based; conditions: Chlorocebus sabaeus
Vero [13] = experiment: cells; format: functional; conditions: Chlorocebus sabaeus
Jurkat = experiment: blockers of NF-kB activation in T cells – Jurkat, luciferase reporter, luminescence, B- and T-cell, dose response (AID 489004); format: functional, cell-based; conditions: Homo sapiens;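 also: NF-kB luciferase reporter Jurkat cells stimulated with PMA plus ionomycin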
[14] = HEK-293T viability loss, compound-treated – cell-based, uHTS hits, cytotoxicity control for B/T-cell NF-kB inhibitor project, dose response (AID 489019); format: functional;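 also: IC50 reflects cytotoxicity as loss of cell viability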
Escherichia coli = experiment: microbe, parasite or virus in culture
HEK293 [15] = experiment: cells; conditions: Homo sapiens
HEK293 [16] = experiment: cells; conditions: Homo sapiens; remark: listed apart in the source
[17] = biological target: T5, Short transient receptor potential channel 4 (Mus musculus, UniProt Q9QUQ5); experiment: calcium entry via TRPC4 opening agents – cell-based, HEK293 TRPC4/mu-opioid, Fluo-4 calcium, dose response (AID 434937); format: functional
T5 sequence (Q9QUQ5 whole entry): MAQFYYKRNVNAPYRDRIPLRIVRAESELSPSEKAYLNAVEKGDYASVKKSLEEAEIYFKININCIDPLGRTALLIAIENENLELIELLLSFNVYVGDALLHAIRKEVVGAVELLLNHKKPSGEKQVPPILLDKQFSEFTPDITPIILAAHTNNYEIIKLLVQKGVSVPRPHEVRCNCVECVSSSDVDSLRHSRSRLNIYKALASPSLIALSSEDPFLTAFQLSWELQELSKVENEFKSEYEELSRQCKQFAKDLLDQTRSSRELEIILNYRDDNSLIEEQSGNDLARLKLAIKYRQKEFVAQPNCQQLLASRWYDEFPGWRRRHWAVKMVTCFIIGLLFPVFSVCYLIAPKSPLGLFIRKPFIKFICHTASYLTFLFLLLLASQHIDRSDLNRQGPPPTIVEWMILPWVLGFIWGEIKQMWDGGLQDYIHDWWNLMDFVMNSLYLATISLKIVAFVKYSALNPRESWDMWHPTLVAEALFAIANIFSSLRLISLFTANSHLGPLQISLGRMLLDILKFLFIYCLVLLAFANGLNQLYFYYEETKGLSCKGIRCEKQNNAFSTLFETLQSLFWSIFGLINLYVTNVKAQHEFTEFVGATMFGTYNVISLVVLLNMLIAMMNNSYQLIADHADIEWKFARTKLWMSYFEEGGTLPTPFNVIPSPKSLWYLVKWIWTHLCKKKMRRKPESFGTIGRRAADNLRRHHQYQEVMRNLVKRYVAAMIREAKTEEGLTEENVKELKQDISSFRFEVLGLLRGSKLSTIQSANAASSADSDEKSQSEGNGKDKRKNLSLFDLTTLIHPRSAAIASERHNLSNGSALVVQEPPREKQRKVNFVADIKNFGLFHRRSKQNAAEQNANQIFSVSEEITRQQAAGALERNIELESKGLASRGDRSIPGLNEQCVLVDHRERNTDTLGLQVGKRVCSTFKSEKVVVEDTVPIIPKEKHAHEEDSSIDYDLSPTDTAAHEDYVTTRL

[18] = biological target: Delta-type opioid receptor (Homo sapiens, UniProt P41143); experiment: Counterscreen for agonists of heterodimerization of the mu 1 (OPRM1) and delta 1 (OPRD1) opioid receptors: Luminescence-based cell-based high throughput dose response assay to identify agonists of OPRD1 homodimerization. [Related pubchem assays (depositor defined):AID504326, AID504355, AID504692, AID504904, AID504905]; format: functional
Mu-type opioid receptor = Mu-type opioid receptor (Homo sapiens, UniProt P35372); experiment: Counterscreen for agonists of heterodimerization of the mu 1 (OPRM1) and delta 1 (OPRD1) opioid receptors: Luminescence-based cell-based high throughput dose response assay to identify agonists of OPRM1 homodimerization.; format: functional;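 also: U2OS cells expressing OPRM1 and beta-arrestin as split beta-galactosidase partners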
[19] = biological target: 5-hydroxytryptamine receptor 5A (Homo sapiens, UniProt P47898); experiment: Counterscreen for agonists of OPRM1-OPRD1 heterodimerization: luminescence-based cell-based high throughput dose response assay to identify agonists of 5-hydroxytryptamine (serotonin) 5A receptor (HTR5A). [Related pubchem assays (depositor defined):AID504326, AID504355, AID504692, AID504904, AID504905]; format: functional
5-hydroxytryptamine receptor 5A, sequence (P47898 whole entry): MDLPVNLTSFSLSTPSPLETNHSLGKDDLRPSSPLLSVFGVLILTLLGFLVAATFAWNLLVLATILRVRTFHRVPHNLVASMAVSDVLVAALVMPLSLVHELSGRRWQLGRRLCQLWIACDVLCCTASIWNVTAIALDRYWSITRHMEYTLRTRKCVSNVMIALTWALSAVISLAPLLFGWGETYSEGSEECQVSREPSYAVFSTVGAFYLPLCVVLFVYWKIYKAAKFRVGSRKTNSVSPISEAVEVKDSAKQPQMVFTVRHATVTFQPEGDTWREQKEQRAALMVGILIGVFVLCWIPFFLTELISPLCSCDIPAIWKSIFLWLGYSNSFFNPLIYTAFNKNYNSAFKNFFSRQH

Photoreceptor-specific nuclear receptor, sequence (Q9Y5X4 whole entry, the tested form may be a part): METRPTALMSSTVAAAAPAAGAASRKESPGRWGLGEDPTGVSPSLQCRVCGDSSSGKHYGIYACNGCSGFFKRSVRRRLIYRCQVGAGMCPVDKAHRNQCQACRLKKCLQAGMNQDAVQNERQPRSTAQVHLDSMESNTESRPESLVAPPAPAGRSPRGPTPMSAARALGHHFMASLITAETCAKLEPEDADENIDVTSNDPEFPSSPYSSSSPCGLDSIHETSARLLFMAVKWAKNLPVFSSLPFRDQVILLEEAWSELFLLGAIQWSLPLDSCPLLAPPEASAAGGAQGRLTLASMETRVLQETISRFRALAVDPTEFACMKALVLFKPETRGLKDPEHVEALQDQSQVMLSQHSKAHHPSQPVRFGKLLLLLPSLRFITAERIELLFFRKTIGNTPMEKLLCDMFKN
Delta-type opioid receptor, sequence (P41143 whole entry): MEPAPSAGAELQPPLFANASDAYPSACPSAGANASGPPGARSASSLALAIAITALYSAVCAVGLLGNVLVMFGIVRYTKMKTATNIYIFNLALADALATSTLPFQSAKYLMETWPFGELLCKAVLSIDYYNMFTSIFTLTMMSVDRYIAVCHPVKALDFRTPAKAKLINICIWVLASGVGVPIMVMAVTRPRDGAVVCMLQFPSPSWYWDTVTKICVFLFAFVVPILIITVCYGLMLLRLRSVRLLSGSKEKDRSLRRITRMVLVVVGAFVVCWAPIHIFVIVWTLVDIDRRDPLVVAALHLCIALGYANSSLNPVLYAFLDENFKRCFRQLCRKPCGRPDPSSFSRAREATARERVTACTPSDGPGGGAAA
Genome polyprotein, sequence (P29990 2492-3391 limits assumed): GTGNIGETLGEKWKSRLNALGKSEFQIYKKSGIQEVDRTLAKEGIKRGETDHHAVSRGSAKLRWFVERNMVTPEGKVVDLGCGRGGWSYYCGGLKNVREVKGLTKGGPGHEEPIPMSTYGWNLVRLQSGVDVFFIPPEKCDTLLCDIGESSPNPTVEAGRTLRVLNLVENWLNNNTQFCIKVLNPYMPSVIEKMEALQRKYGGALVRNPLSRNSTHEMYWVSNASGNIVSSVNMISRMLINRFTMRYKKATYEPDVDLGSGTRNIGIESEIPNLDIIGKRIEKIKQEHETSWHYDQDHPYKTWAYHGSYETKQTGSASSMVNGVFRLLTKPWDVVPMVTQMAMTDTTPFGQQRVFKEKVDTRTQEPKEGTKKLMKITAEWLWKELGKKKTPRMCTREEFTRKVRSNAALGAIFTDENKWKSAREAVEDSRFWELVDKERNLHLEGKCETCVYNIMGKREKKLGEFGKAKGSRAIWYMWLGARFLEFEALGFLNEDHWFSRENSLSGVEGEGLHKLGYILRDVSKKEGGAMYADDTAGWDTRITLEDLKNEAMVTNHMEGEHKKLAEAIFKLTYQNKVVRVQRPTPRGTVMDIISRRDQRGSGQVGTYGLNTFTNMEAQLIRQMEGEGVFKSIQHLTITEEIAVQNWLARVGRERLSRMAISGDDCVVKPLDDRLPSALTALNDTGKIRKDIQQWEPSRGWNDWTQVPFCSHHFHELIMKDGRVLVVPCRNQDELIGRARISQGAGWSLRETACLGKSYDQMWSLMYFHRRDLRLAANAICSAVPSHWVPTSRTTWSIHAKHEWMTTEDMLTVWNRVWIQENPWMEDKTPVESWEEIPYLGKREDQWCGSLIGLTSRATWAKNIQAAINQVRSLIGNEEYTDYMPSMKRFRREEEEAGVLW
Mu-type opioid receptor, sequence (P35372 whole entry): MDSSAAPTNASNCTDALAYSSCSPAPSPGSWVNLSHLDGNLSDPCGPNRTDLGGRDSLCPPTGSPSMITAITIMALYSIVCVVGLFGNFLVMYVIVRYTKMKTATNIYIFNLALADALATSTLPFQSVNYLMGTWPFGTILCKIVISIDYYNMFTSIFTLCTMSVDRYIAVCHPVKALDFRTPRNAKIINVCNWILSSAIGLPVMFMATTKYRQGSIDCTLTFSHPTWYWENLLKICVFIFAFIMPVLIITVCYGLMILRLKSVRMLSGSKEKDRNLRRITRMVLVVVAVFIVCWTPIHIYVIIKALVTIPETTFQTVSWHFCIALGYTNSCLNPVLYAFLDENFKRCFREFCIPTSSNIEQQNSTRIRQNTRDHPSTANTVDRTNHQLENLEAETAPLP

SMILES: CC(C)c1ccc(-c2csc(NC(=O)c3cccs3)c2C(=O)O)cc1
- EC50 (HEK293 [1]): 8.7 µM (active)
- IC50 (HEK293 [2]): > 20 µM (inactive)
- IC50 (HEK293 [3]): > 20 µM (inactive)
- IC50 (HEK293 [4]): 9.22 µM (active)
- CC50 (Vero [5]): > 40 µM (active)
- IC50 (Genome polyprotein): 39.9 µM (active)
- IC50 [6]: 6.83 µM (active)

SMILES: COc1ccc(C(CNC(=O)c2ccc(S(=O)(=O)Nc3ccccc3F)cc2)N(C)C)cc1 (stereo not given)
- IC50 (Bcl-2-related protein A1): > 20 µM (inactive)
- IC50 [7]: 4.54 µM (active)
- IC50 [8]: 6.59 µM (active)
- IC50 [9]: > 100 µM (inactive)

SMILES: N#C/C(=C\C=C\c1ccccc1[N+](=O)[O-])C(=O)NCc1ccccc1
- EC50 [10]: > 120 µM (not active)
- EC50 (H4): > 120 µM (not active)
- AC50 [11]: 14.7 µM (active)
- IC50 (Vero [12]): > 25 µM (active)
- CC50 (Vero [13]): 15.3 µM (active)

SMILES: O=C(Nc1nc(-c2ccc(F)c(F)c2)cs1)c1ccc(OCC2CCCO2)cc1 (stereo not given)
- IC50 (Jurkat): > 80 µM (inactive)
- IC50 [14]: > 80 µM (inactive)

SMILES: Cc1ccc(Cn2nc(C)c(NC(=O)c3cc(C)no3)c2C)cc1
- AC50 (Escherichia coli): > 380 µM (inactive)

SMILES: C=CCNc1sc(C(=O)c2ccccc2)c(N)c1-c1nc2ccccc2s1
- EC50 (HEK293 [15]): > 59.7 µM (inactive)
- EC50 (HEK293 [16]): > 59.7 µM (inactive)

SMILES: Cc1ccc(-n2cc(CNC(C)c3cnn(C)c3)c(-c3ccc(F)cc3)n2)cc1 (stereo not given)
- EC50 [17]: 1.88 µM (active)
- EC50 [18]: 37.3 µM (inactive)
- EC50 (Mu-type opioid receptor): 2.42 µM (active)
- EC50 [19]: > 92.5 µM (inactive)

Source: ChEMBL document CHEMBL1201862, “PubChem BioAssay data set” (2004)
